*1 amine or outer side, *2 acyl side, *3 side chain or, on linkers, in order; H or OH if unused. Where a SMILES comes first, the peptide text is derived from it. Bridges are numbered along the chain shown (N, C = ends). [ ]: non-standard residue; d: D form. The star is where a group is joined. ξ: configuration not given here. Phe(3-OMe,4-CONHMs) = COc1cc(C[C@H](N)C(=O)O)ccc1C(=O)NS(C)(=O)=O; X19 = CC(C)C[C@H](NN(C)[C@H](Cc1ccccc1)N(C)[*:1])C(=O)[*:2]; Phe(4-CF3) = N[C@@H](Cc1ccc(C(F)(F)F)cc1)C(=O)O; NMePhe(3-Cl) = CN[C@@H](Cc1cccc(Cl)c1)C(=O)O; X12 = O=C([C@H](CCCC(O)C(F)(F)F)N[*:1])[*:2]; NMehPhe = CN[C@@H](CCc1ccccc1)C(=O)O; X6 = O=C([C@H](CCCCO)N[*:1])[*:2]; NMeF = CN[C@@H](Cc1ccccc1)C(=O)O; NMeGABA = CN(CCCC(=O)[*:2])[*:1]; NMeI = CC[C@H](C)[C@H](NC)C(=O)O; CH2CH(OH)CF3 = OC(C*)C(F)(F)F; NMeL = CN[C@@H](CC(C)C)C(=O)O; NMeV = CN[C@H](C(=O)O)C(C)C; NMeAbu = CC[C@H](NC)C(=O)O; Piperidide = C1CCN(*)CC1; NBuGly = CCCCNCC(=O)O; ξL = CC(C)CC(N)C(=O)O; Isopentyl = CC(C)CC*; NPrGly = CCCNCC(=O)O; Ethyl(2-OH) = OCC*; Sar = CNCC(=O)O; tBu = CC(C)(C)*

The first data set is described as follows: in vitro. The following applies: human, Caco-2, Caco-2 (cm/sec).
The term Papp denotes a coefficient for how fast a substance crosses the barrier. A lower Papp goes with poor permeation. Consider `CC(C)C[C@@H]1NC(=O)[C@H](CCc2ccccc2)N(C)C(=O)[C@H](CCc2ccccc2)N(C)C(=O)[C@H](CCCCO)NC(=O)[C@H](C(C)C)N(C)C(=O)CCCN(C)C(=O)C[C@@H](C(=O)N2CCCCC2)NC(=O)[C@H](CC(C)C)N(C)C(=O)[C@H](CC(C)C)N(C)C(=O)[C@H]([C@@H](C)O)NC(=O)[C@H](CC(C)C)N(C)C1=O` [Compound B03] ([NMeGABA][NMeV][X6][NMehPhe][NMehPhe]L[NMeL]T[NMeL][NMeL]D-Piperidide; lactam N-11), for which the Papp was found to be 0.27 ×10⁻⁶ cm/s. In turn, `COc1cc(C[C@@H]2NC(=O)[C@H](C(C)C)N(C)C(=O)[C@H](CC(C)C)N(C)C(=O)C(CC(C)C)NC(=O)[C@H](CC(C)C)N(C)C(=O)[C@H](CC(C)C)N(C)C(=O)[C@H](C)NC(=O)[C@H](CC(C)C)N(C)C(=O)C[C@@H](C(=O)N3CCCCC3)NC(=O)[C@H](CC(C)C)N(C)C(=O)CN(C)C2=O)ccc1C(=O)NS(C)(=O)=O` (stereo partly drawn) [AP142] ([NMeL]A[NMeL][NMeL][ξL][NMeL][NMeV][Phe(3-OMe,4-CONHMs)][Sar][NMeL]D-Piperidide; lactam N-11) came in with a Papp of 0.63 ×10⁻⁶ cm/s.

In the case of `CCCN1CC(=O)N(C)[C@@H](CC(C)C)C(=O)N[C@@H](COCCC(C)C)C(=O)N(C)[C@@H](Cc2ccccc2)C(=O)N(C)[C@@H](CC(C)C)C(=O)N[C@H](C(=O)N2CCCCC2)CC(=O)N[C@H](C(C)C)C(=O)N(C)[C@@H](CCc2ccccc2)C(=O)N[C@@H](COCCO)C(=O)N(C)[C@@H](CC(C)C)C(=O)N[C@@H]([C@@H](C)O)C1=O` [Compound A01] ([dV][NMehPhe]S(Ethyl(2-OH))[NMeL]T[NPrGly][NMeL]S(Isopentyl)[NMeF][NMeL]D-Piperidide; lactam N-11), the Papp came to 0.6 ×10⁻⁶ cm/s. Still for that read-out and setting: for `CCCN1CC(=O)N(C)[C@@H](Cc2cccc(Cl)c2)C(=O)N(C)[C@@H](CC(C)C)C(=O)N[C@@H](CCCCO)C(=O)N(C)[C@@H](CC(C)C)C(=O)N[C@H](C(=O)N2CCCCC2)CC(=O)N(C)CC(=O)N(C)[C@@H](CCc2ccccc2)C(=O)N[C@@H](C(C)C)C(=O)N(C)[C@@H](CC(C)C)C(=O)N[C@@H]([C@@H](C)O)C1=O` [Compound B08] ([Sar][NMehPhe]V[NMeL]T[NPrGly][NMePhe(3-Cl)][NMeL][X6][NMeL]D-Piperidide; lactam N-11) the value was 0.15 ×10⁻⁶ cm/s; for `CC(C)C[C@@H]1NN(C)[C@H](Cc2ccccc2)N(C)C(=O)[C@@H](C(C)C)NC(=O)C[C@@H](C(=O)N2CCCCC2)NC(=O)[C@H](CC(C)C)N(C)C(=O)[C@H](CC(C)C)N(C)C(=O)[C@H](Cc2ccc(O)cc2)NC(=O)[C@H](CC(C)C)N(C)C(=O)CN(C)C(=O)[C@H]([C@@H](C)O)NC(=O)[C@H](CC(C)C)N(C)C1=O` [Compound F01] ([dV][X19][NMeL]T[Sar][NMeL]Y[NMeL][NMeL]D-Piperidide; lactam N-10), 0.32 ×10⁻⁶ cm/s.

Still in this data set, the particulars now being: human, Caco-2, Caco-2 (membrane permeability).
In turn, `CCCCN1CC(=O)N(C)[C@@H](Cc2ccccc2)C(=O)N(C)[C@@H](CC(C)C)C(=O)N[C@@H](COC(C)(C)C)C(=O)N(C)[C@@H](CC(C)C)C(=O)N[C@H](C(=O)N2CCCCC2)CC(=O)N(C)CC(=O)N(C)[C@@H](Cc2ccccc2)C(=O)N[C@@H](C(C)C)C(=O)N(C)[C@@H](CC)C(=O)N[C@@H](COCC(O)C(F)(F)F)C1=O` (stereo partly drawn) [Compound C16] ([Sar][NMeF]V[NMeAbu]S(CH2CH(OH)CF3)[NBuGly][NMeF][NMeL]S(tBu)[NMeL]D-Piperidide; lactam N-11) came in with a Papp of 0.41 ×10⁻⁶ cm/s. The same measure, in the same setting: for `CCCCN1CC(=O)N(C)[C@@H](CC(C)C)C(=O)N[C@@H](CCCC(O)C(F)(F)F)C(=O)N(C)[C@@H](Cc2ccccc2)C(=O)N(C)[C@@H](C(C)C)C(=O)N[C@H](C(=O)N2CCCCC2)CC(=O)N[C@H](C(C)C)C(=O)N(C)[C@@H](Cc2ccccc2)C(=O)N[C@@H](CC(C)C)C(=O)N(C)[C@@H](CC(C)C)C(=O)N[C@@H]([C@@H](C)O)C1=O` (stereo partly drawn) [Compound D09] ([dV][NMeF]L[NMeL]T[NBuGly][NMeL][X12][NMeF][NMeV]D-Piperidide; lactam N-11) the value was 0.13 ×10⁻⁶ cm/s; for `CC(C)C[C@H]1C(=O)N[C@@H](CCCC(O)C(F)(F)F)C(=O)N(C)[C@@H](Cc2cccc(Cl)c2)C(=O)N(C)[C@@H](Cc2ccccc2)C(=O)N[C@@H](COC(C)(C)C)C(=O)N(C)[C@@H](CC(C)C)C(=O)N[C@@H]([C@@H](C)O)C(=O)N(C)[C@@H](CC(C)C)C(=O)N(C)[C@@H](CC(C)C)C(=O)N[C@H](C(=O)N2CCCCC2)CC(=O)N(C)CCCC(=O)N1C` (stereo partly drawn) [Compound D02] ([NMeGABA][NMeL][X12][NMePhe(3-Cl)][NMeF]S(tBu)[NMeL]T[NMeL][NMeL]D-Piperidide; lactam N-11), 0.14 ×10⁻⁶ cm/s; for `CCCCN1CC(=O)N(C)[C@@H](CC(C)C)C(=O)N[C@@H](CCC(=O)NC)C(=O)N(C)[C@@H](Cc2ccccc2)C(=O)N(C)[C@@H]([C@@H](C)CC)C(=O)N[C@H](C(=O)N2CCCCC2)CC(=O)N[C@H](CC(C)C)C(=O)N(C)[C@@H](CC(C)C)C(=O)N[C@@H](Cc2ccc(C(F)(F)F)cc2)C(=O)N(C)[C@@H](CC(C)C)C(=O)N[C@@H]([C@@H](C)O)C1=O` [Compound J02] ([dL][NMeL][Phe(4-CF3)][NMeL]T[NBuGly][NMeL]E(NHMe)[NMeF][NMeI]D-Piperidide; lactam N-11), 0.004 ×10⁻⁶ cm/s.

Source of the values: patent US20230096766A1, “AMINO ACID HAVING FUNCTIONAL GROUP CAPABLE OF INTERMOLECULAR HYDROGEN BONDING, PEPTIDE COMPOUND CONTAINING SAME AND METHOD FOR PRODUCTION THEREOF” (Chugai Seiyaku Kabushiki Kaisha, priority 2018, published 2023).
